Positions count from the first letter of the chain named. Where two headings read alike, the source gives them in different places.

A word on the IC90: it is the concentration at which the effect reaches the 90% level. Low readings indicate greater potency, high ones weaker potency. For orientation: Cmax means the maximum level reached in the sampled fluid or tissue.

The target in series [1] is T1, Y537N mutant receptor (ERα LBD mutant) (Homo sapiens, UniProt P03372, Y537N).
T1 construct: expressed in transfected cells; host or cells: Caov2 ovarian carcinoma cells; SKBR3 breast adenocarcinoma cells
T1 sequence (P03372 1-595 Y537N): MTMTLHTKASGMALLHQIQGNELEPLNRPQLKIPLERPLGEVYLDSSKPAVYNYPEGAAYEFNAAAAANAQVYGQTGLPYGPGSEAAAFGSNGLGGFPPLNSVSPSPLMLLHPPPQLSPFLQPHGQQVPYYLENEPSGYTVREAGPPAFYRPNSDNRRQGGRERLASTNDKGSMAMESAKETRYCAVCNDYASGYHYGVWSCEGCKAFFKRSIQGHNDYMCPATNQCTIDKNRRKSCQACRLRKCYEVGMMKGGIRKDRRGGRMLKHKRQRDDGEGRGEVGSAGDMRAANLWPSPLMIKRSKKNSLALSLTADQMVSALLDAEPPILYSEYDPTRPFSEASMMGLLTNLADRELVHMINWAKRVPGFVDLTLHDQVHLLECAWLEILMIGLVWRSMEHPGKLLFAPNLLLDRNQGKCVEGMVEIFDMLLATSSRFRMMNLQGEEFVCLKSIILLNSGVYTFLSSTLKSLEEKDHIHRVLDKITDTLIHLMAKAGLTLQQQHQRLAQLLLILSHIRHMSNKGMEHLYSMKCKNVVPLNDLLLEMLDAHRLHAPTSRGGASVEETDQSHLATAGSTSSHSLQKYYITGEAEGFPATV
The series can be described thus: ERE-luciferase reporter gene assay, ERα Y537N, Caov2 cells. Format: cell-based. The protocol: (§1) ExSite mutagenesis was performed using the corresponding primers as summarized in Table 1 below on a pENTR2B ERα WT construct using Pfu ultra taq polymerase. The primers were PNK phosphorylated. Following PCR amplification, the products were digested with DpnI at 37° C. for 1 hr, followed by overnight ligation at 16° C. Ligated products were transformed into DH5α bacterial cells and grown on kanamycin resistant plates. The pENTR clones were verified by sequencing and then swapped into the pcDNA-DEST vector using the Gateway system (Invitrogen) for expression analysis.
(§2) Caov2 ovarian carcinoma cells were grown in RPMI-1640 media (Gibco) supplemented with 8% Fetal Bovine Serum (FBS), Sodium Pyruvate (NaPyr) and non-essential amino acids (NEAA) and passaged every 2-3 days. SKBR3 breast adenocarcinoma cells were grown in DMEM media (Gibco) supplemented with 8% Fetal Bovine Serum (FBS), Sodium Pyruvate (NaPyr) and non-essential amino acids (NEAA) and passaged every 2-3 days. […]
(§3) Caov2 cells were co-transfected with the 7X-TK-ERE-TATA luciferase reporter gene (Nagel et al., Endocrinology 142(11): 4721-4728 (2001)) and expression constructs for either wild-type or mutant receptors using Fugene transfection reagent (Promega). […] Following 24 hours of treatment, cells were lysed and the luciferase and β-gal assays were performed as described previously (Norris et al., J Biol Chem 270(39): 22777-22782 (1995)) and the plates were read on the Fusion α-FP HT plate reader (PerkinElmer Life Sciences).
(§4) See Jeselsohn et al., Nature Reviews Clinical Oncology 12(10): 573-583 (2015); Jeselsohn et al., Clinical Cancer Research 20(7): 1757-1767 (2014); Robinson et al., Nature Genetics 45(12): 1446-1451(2013); Thomas and Gustafsson, Trends in Endocrinology and Metabolism 26(9): 467-476 (2015); and Toy et al., Nature Genetics 45(12): 1439-1445 (2013). The activity of these mutants was evaluated in a reconstituted estrogen response element (ERE)-luciferase reporter assay in Caov2 ovarian carcinoma cells and SKBR3 breast adenocarcinoma cells. […]
(In general: A reporter such as luciferase makes a cellular process visible.)

Series [2] has as its target T2, Y537C mutant receptor (ERα LBD mutant) (Homo sapiens, UniProt P03372, Y537C).
T2 construct: expressed in transfected cells; host or cells: Caov2 ovarian carcinoma cells; SKBR3 breast adenocarcinoma cells
T2 sequence (P03372 1-595 Y537C): T1 sequence (P03372 1-595 Y537N) with N537C
The series can be described thus: ERE-luciferase reporter gene assay, ERα Y537C, SKBR3 cells. Format: cell-based. Here is the method: as §1, §2, §3, §4

Series [3] concerns the target T3, ESR1 wild type receptor (ERα WT) (Homo sapiens, UniProt P03372).
T3 construct: expressed in transfected cells; host or cells: Caov2 ovarian carcinoma cells; SKBR3 breast adenocarcinoma cells
T3 sequence (P03372 1-595): T1 sequence (P03372 1-595 Y537N) with N537Y
The series is described as follows: ERE-luciferase reporter gene assay, wild-type ERα, SKBR3 cells. It counts as cell-based. Here is the method: as §1, §2, §3, §4

Series [4] addresses T1, Y537N mutant receptor (ERα LBD mutant). The series can be described thus: ERE-luciferase reporter gene assay, ERα Y537N, SKBR3 cells. Format: cell-based. Here is the method: as §1, §2, §3, §4
Series [5] can be described thus: Reported Cmax in blood at approved doses. It counts as in vivo. The source says: See Maximov et al., Current Clinical Pharmacology 8(2): 135-155 (2013) and McDonnell et al., Journal of Medicinal Chemistry 58(12): 4883-4887 (2015). The transcriptional IC90 values of ER modulators evaluated were compared to the Cmax of these compounds in blood at approved doses. See Highlights of Prescribing Information: Evista, 2007; Highlights of Prescribing Information: Faslodex, 2012; Nolvadex, 2006; and Summary of Product Characteristics: Conbriza 2009.

The target in series [6] is T3, ESR1 wild type receptor (ERα WT). The series is described as follows: ERE-luciferase reporter gene assay, wild-type ERα, Caov2 cells. It counts as cell-based. The protocol: as §1, §2, §3, §4
For series [7], the target named is T2, Y537C mutant receptor (ERα LBD mutant). The series can be described thus: ERE-luciferase reporter gene assay, ERα Y537C, Caov2 cells. Format: cell-based. Here is the method: as §1, §2, §3, §4
The conditions of series [8]: in blood at approved doses: ICI 500 mg, 4OHT 20 mg, raloxifene 60 mg, bazedoxifene 20 mg; cited from earlier work.
[9] abbreviates: human, blood, reported Cmax converted to molar, same approved doses, read-out: Converted (M) Cmax.

4-hydroxytamoxifen [4OHT]: the “Caov2 Ratio Cmax/IC90” value in series [1] is on record as 11.6; in series [6], 119.01; in series [7], 13.24. The IC90 in series [1] was 9.45 nM; in series [2], 59 nM; in series [3], 3.2 nM; in series [4] it was 130 nM; in series [6], 0.924 nM; in series [7], 8.31 nM. The “inhibition of receptor transcriptional activity (in words)” value in series [1] is recorded as “inhibits the Y537N mutant receptor activity in a dose-response manner”; in series [2], “inhibits the Y537C mutant receptor activity in a dose-response manner”; in series [3], “inhibits the ESR1 wild type receptor activity”; in series [4] it was “inhibits the Y537N mutant receptor activity in a dose-response manner”; in series [6], “inhibits activity of the ESR1 wild type receptor”; in series [7], “inhibits the Y537C mutant receptor activity in a dose-response manner”. The “SKBR3 Ratio Cmax/IC90” value in series [2] was 1.86; in series [3], 34.38; in series [4], 0.85. For the same compound, in series [5] (in vivo), the highest level (Cmax) was 1.1e-07 M. Also, the “Reported Cmax” value in series [8] is reported as 40 ng/mL.

Turning to `Cc1c(-c2ccc(O)cc2)n(Cc2ccc(OCCN3CCCCCC3)cc2)c2ccc(O)cc12` [Bazedoxifene, bazedoxifene], the Cmax in series [5] (setting [9]) came to 7.29e-09 M. In addition, the “Reported Cmax” value in series [8] was 6.2 ng/mL.

Compound `C[C@]12CC[C@@H]3c4ccc(O)cc4C[C@@H](CCCCCCCCC[S+]([O-])CCCC(F)(F)C(F)(F)F)[C@H]3[C@@H]1CC[C@@H]2O` (some centres unmarked) [ICI, fulvestrant] displayed a Cmax in series [5] (human, in vivo) of 4.6e-08 M. Further, the “Reported Cmax” value in series [8] is 28 ng/mL.

For `O=C(c1ccc(OCCN2CCCCC2)cc1)c1c(-c2ccc(O)cc2)sc2cc(O)ccc12` [Raloxifene, raloxifene], the Cmax in series [5] (setting [9]) amounted to 2.87e-09 M. In addition, in series [8], the “Reported Cmax” value was 1.36 ng/mL.
